# Values quoted from earlier work, collected in patent US20240139123A1, “COMPOSITIONS AND METHODS FOR IMPROVING BRAIN FUNCTION” (Health Via Modern Nutrition Inc., priority 2021, published 2024).
# What was measured:
# [1] = rats, diet supplemented as 30% of calories
# [2] = Schizophrenia-like rat model
# NF-κB activation = details: in vitro
# [3] = animal and in vitro studies
# [4] = animal models
# [5] = patient with Alzheimer's disease dementia, 20-month oral administration
compound,measurement,setting,value
C[C@@H](O)CCOC(=O)C[C@@H](C)O [(R)-3-hydroxyburyl (R)-3-hydroxybutyrate],cognitive and physical performance,[1],improved cognitive and physical performance
"C=C(C)[C@@H]1CCC(C)=C[C@H]1c1c(O)cc(CCCCC)cc1O [CBD, cannabidiol]",cognitive impairment and cortical transcriptional changes,[2],improve cognitive impairment and reverse cortical transcriptional changes
same,NF-κB activation,NF-κB activation,inhibits
same,reactive oxygen species (ROS) production by mitochondria,NF-κB activation,inhibits
same,anti-inflammatory properties,[3],strong anti-inflammatory properties
same,anti-anxiety and antidepressant effects,[4],exhibited an anti-anxiety and antidepressant effects
C[C@@H](O)CCOC(=O)C[C@@H](C)O [ketone monoester],"mood, affect, self-care, cognitive and daily activity performance",[5],"improved markedly in mood, affect, self-care, and cognitive and daily activity performance"
